Results on four compounds are retold here after patent US4148795A, “Dithiocarbamate ester bactericides and fungicides” (American Cyanamid Company, priority 1976, dated 1979).

Like-named read-outs stand apart in the source and are kept apart here.

In test [1] the test system is Collectotrichum lagenarium. Kind of test: Agar dilution plate. Format: cell-based. The settings on record: Cl; 100 ppm, 72 hours at 23° C. On the procedure: (§1) Test compounds were incorporated in a Sabouraud's dextrose agar in an amount sufficient to provide the active ingredient in a concentration of about 100 ppm. A twenty-ml. sample of the agar mixture is placed in a petri dish and permitted to solidify. An agar sample is inoculated with the test organism set forth below and then covered and incubated for a period of about 72 hours at 23° C. After incubation, growth observations are made. The test results are recorded and the test is repeated twice for the purpose of comparison.
(§2) The data obtained with a variety of test organisms is shown in the table below, and ratings are shown as 0 or 5. O indicates no control, 5 indicates 100% effectiveness of the test compound against the specified organism.
Cl= Collectotrichum lagenarium

A further test has as its system Staphylococcus aureus. It counts as cell-based. To be noted: 100 ppm; subcultures 72 hours at 37° C. Note: key: 0: No Effect; 9: Kill of Bacteria; 5: Stasis, but not Kill of all Bacteria.
The test system of a further test is Pseudomonas solaracaerum. It counts as cell-based. To be noted: 100 ppm, 72 hours at 23° C.
Another test relates to Aerobacter aerogenes. It counts as cell-based. To be noted: 100 ppm; subcultures 72 hours at 37° C.
The test system of another test is Xanthomonas vesicatoria. It counts as cell-based. The settings on record: 100 ppm; subcultures 72 hours at 37° C. Note: key: 0: No Effect; 9: Kill of Bacteria; 5: Stasis, but not Kill of all Bacteria.
In test [2] the test system is Stemphylium sarcinaeforme. Kind of test: Spore germination inhibition. Format: cell-based. To be noted: Stemphylium sarciniforme; for inhibition at 100 ppm: 24 h, read-out: % Inhibition of Spore Germination; for inhibition at 1 ppm / inhibition at 10 ppm: 24 hours. From the text:
(§3) The test procedure involves the preparation of a 100, 10 or 1 ppm. suspension of test compound in water. The solutions are placed in one dram "opticlear" vials and separately inoculated with one drop of a spore suspension prepared from seven-day cultures of Aspergillus niger and 14-day old cultures of Monilinia fructicola and Stemphylium sarcinaeforme,all grown on potato-dextrose agar. The vials containing the separately inoculated solutions of test compounds are then capped and placed on a rotating tumbler for 24 hours to assure contact of the organism with the test compound. After 24 hours, the vials are removed and examined for inhibition of […].

Test [3] concerns Monilinia fructicola. Kind of test: Spore germination inhibition. Format: cell-based. The settings on record: for inhibition at 1 ppm / inhibition at 10 ppm: 24 hours; for inhibition at 100 ppm: 24 h, read-out: % Inhibition of Spore Germination.
Description: as §3

In test [4] the test system is Aspergillus niger. Kind of test: Spore germination inhibition. It counts as cell-based. To be noted: 24 hours.
Description: as §3

For test [5], the system named is Stemphylium sarcinaeforme. Description: Agar dilution plate. It counts as cell-based. The settings on record: Ss; 100 ppm, 72 hours at 23° C. On the procedure: as §1, §2
Ss= Stemphylium sarcinaeforme

Another test relates to Fusarium lycopersici. Kind of test: Agar dilution plate. It counts as cell-based. The settings on record: Fl; 100 ppm, 72 hours at 23° C. As for the experimental part:
as §1, §2

The test system of the next test is Pythium de Baryanum. Description: Agar dilution plate. Format: cell-based. The settings on record: Pd; 100 ppm, 72 hours at 23° C. On the procedure:
as §1, §2

Test [6] has as its system Monilinia fructicola. Description: Agar dilution plate. Format: cell-based. To be noted: Mf; 100 ppm, 72 hours at 23° C. On the procedure: as §1, §2
Another test concerns Rhizoctonia solani. Kind of test: Agar dilution plate. It counts as cell-based. To be noted: Rs; 100 ppm, 72 hours at 23° C. As for the experimental part: as §1, §2
Test [7] relates to Aspergillus niger. Description: Agar dilution plate. It counts as cell-based. The settings on record: An; 100 ppm, 72 hours at 23° C. On the procedure:
as §1, §2

The subject of a further test is Verticillium albo-atrum. Kind of test: Agar dilution plate. Format: cell-based. To be noted: Va; 100 ppm, 72 hours at 23° C. On the procedure: as §1, §2
Va= Verticillium albo-atrum

Another test concerns Piricularia oryzae. It counts as in vivo. On the set-up: scale not given here. To be noted: Rice Blast, five days.
A further test deals with Venturia inaequalis. The settings on record: in vivo.
The test system of a further test is Phytophthora infestans. It counts as in vivo. Also noted: scale not given here. The settings on record: Tomato Late Blight, five days.
Throughout, for Antibacterial Activity rating: key: 0: No Effect; 9: Kill of Bacteria; 5: Stasis, but not Kill of all Bacteria.

Take `CCC(CSC(=S)N(C)C)[N+](=O)[O-]` (stereo not drawn) [Example 6, 2-Nitrobutyl Dimethyldithiocarbamate]: the “Agar Dilution Plate rating” value is on record as 5 (100% effectiveness of the test compound against the specified organism) in test [1]; 0 in the test with Pseudomonas solaracaerum; 5 (100% effectiveness of the test compound against the specified organism) in test [5]; 5 (100% effectiveness of the test compound against the specified organism) with Fusarium lycopersici; 5 (100% effectiveness of the test compound against the specified organism) with Pythium de Baryanum; 5 (100% effectiveness of the test compound against the specified organism) in the test with Monilinia fructicola [6]. In addition, the “Agar Dilution Plate rating” value with Rhizoctonia solani, in the test on Aspergillus niger [7] and in the test with Verticillium albo-atrum was 5 (100% effectiveness of the test compound against the specified organism) in each case. Besides, the “Antibacterial Activity rating” value in the test with Staphylococcus aureus, in the test with Aerobacter aerogenes and in the test with Xanthomonas vesicatoria was 9 in each case. For the same compound, the inhibition at 100 ppm (in [2]; in the test on Monilinia fructicola [3]; with Aspergillus niger [4]) was 100% each time. In addition, the inhibition at 1 ppm was found to be 100% in test [2], 100% in the test on Monilinia fructicola [3] and 0% in the test with Aspergillus niger [4]. Also, the inhibition at 10 ppm (in test [2]; in the test on Monilinia fructicola [3]; in the test with Aspergillus niger [4]) was 100% in each case.
With `CC(=O)C(CSC(=S)N(C)C)=C(C)O` [Example 9, 2-(1-Hydroxyethylidene)-3-oxobutyl Dimethyldithiocarbamate], the disease control index is 0 in the test on Piricularia oryzae (150 ppm), 2 with Piricularia oryzae (300 ppm), 3 in the test on Piricularia oryzae (600 ppm) and 4 with Piricularia oryzae (1200 ppm). Further, the “Agar Dilution Plate rating” value in test [1] is listed as 5 (100% effectiveness of the test compound against the specified organism); with Pseudomonas solaracaerum, 0; in test [5] it was 0; with Fusarium lycopersici it was 0; in the test on Pythium de Baryanum it was 0; in the test with Monilinia fructicola [6], 0. The “Agar Dilution Plate rating” value with Rhizoctonia solani, with Aspergillus niger [7] and in the test on Verticillium albo-atrum was 0 throughout. Besides, the “Antibacterial Activity rating” value in the test with Staphylococcus aureus is 5; in the test with Aerobacter aerogenes, 0; in the test with Xanthomonas vesicatoria, 0. In addition, the inhibition at 100 ppm (in test [2]; in the test with Monilinia fructicola [3]; in the test on Aspergillus niger [4]) was 100% in each case. In addition, the inhibition at 1 ppm (in test [2]; with Monilinia fructicola [3]; in the test on Aspergillus niger [4]) was 0% throughout. The inhibition at 10 ppm (in test [2]; in the test with Monilinia fructicola [3]; in the test on Aspergillus niger [4]) was 0% in each case.
As for `CC(=O)Oc1ccc(C(C[N+](=O)[O-])SC(=S)N(C)C)cc1` (stereo not drawn) [Example 24, 4-Acetoxy-α-(nitromethyl)benzyl Dimethyldithiocarbamate], the disease control index amounted to 3 in the test with Piricularia oryzae (at 75 ppm); 4 in the test with Piricularia oryzae (at 500 ppm); 5 in the test on Venturia inaequalis; 3 in the test on Phytophthora infestans (at 100 ppm); 5 with Phytophthora infestans (at 500 ppm). Further, the “Agar Dilution Plate rating” value in [1] is given as 5 (100% effectiveness of the test compound against the specified organism); with Pseudomonas solaracaerum, 0; in test [5], 5 (100% effectiveness of the test compound against the specified organism); with Fusarium lycopersici it was 0; in the test with Pythium de Baryanum, 0; with Monilinia fructicola [6], 5 (100% effectiveness of the test compound against the specified organism). For the same compound, the “Agar Dilution Plate rating” value in the test on Rhizoctonia solani is listed as 0; in the test on Aspergillus niger [7], 0; in the test on Verticillium albo-atrum it was 5 (100% effectiveness of the test compound against the specified organism). In addition, the inhibition at 100 ppm in [2] came to 0%; in the test with Monilinia fructicola [3], 100%; in the test on Aspergillus niger [4], 100%. In addition, the inhibition at 1 ppm with Monilinia fructicola [3] and with Aspergillus niger [4] was 0% throughout. For the same compound, the inhibition at 10 ppm with Monilinia fructicola [3] and with Aspergillus niger [4] was 100% each time.
Regarding `CN(C)C(=S)SC(C[N+](=O)[O-])c1cccc2ccccc12` (stereo not drawn) [Example 31, 1-Naphthyl-2-nitroethyl Dimethyldithiocarbamate], the disease control index in the test with Piricularia oryzae (at 75 ppm) stood at 4; with Piricularia oryzae (at 500 ppm), 5; in the test with Venturia inaequalis, 4; in the test with Phytophthora infestans (at 100 ppm), 5; with Phytophthora infestans (at 500 ppm), 5. The “Agar Dilution Plate rating” value in test [1] was 5 (100% effectiveness of the test compound against the specified organism); in the test with Pseudomonas solaracaerum, 0; in test [5], 5 (100% effectiveness of the test compound against the specified organism); in the test on Fusarium lycopersici, 0; with Pythium de Baryanum it was 5 (100% effectiveness of the test compound against the specified organism); in the test with Monilinia fructicola [6], 5 (100% effectiveness of the test compound against the specified organism). Also, the results for the “Agar Dilution Plate rating” value in the test with Rhizoctonia solani, in the test on Aspergillus niger [7] and in the test with Verticillium albo-atrum were 5 (100% effectiveness of the test compound against the specified organism), 0 and 5 (100% effectiveness of the test compound against the specified organism), respectively. The inhibition at 100 ppm (in test [2]; in the test with Monilinia fructicola [3]; in the test on Aspergillus niger [4]) was 100% each time. For the same compound, the inhibition at 1 ppm (in [2]; in the test with Monilinia fructicola [3]; in the test on Aspergillus niger [4]) was 0% throughout. Moreover, the inhibition at 10 ppm (in [2]; with Monilinia fructicola [3]; with Aspergillus niger [4]) was 0% in each case.
